Reference: patent US20110053773A1, “METHODS OF IMPROVING NUTRITIONAL VALUE OF PLANTS” (UNIVERSITY OF TENNESSEE RESEARCH FOUNDATION, priority 2009, published 2011)

Legend:
[1] = tested on: kale 'Red Russian'; assay: Content analysis of kale: protein, amino acids, fiber, fatty acids, minerals (Example 4, Tables 12-14); format: in vivo; details: 28 DA-A; for Alanine, Percent Increase over the Untreated Check (on a % dry matter basis) / Aspartic acid, Percent Increase over the Untreated Check (on a % dry matter basis) / Cysteine, Percent Increase over the Untreated Check (on a % dry matter basis) / Glutamic acid, Percent Increase over the Untreated Check (on a % dry matter basis) / Glycine, Percent Increase over the Untreated Check (on a % dry matter basis) / Iso-leucine, Percent Increase over the Untreated Check (on a % dry matter basis) / Leucine, Percent Increase over the Untreated Check (on a % dry matter basis) / Lysine, Percent Increase over the Untreated Check (on a % dry matter basis) / Methionine, Percent Increase over the Untreated Check (on a % dry matter basis) / Proline, Percent Increase over the Untreated Check (on a % dry matter basis) / Threonine, Percent Increase over the Untreated Check (on a % dry matter basis) / Total Amino acids, Percent Increase over the Untreated Check (on a % dry matter basis) / Total Protein, Percent Increase over the Untreated Check (on a % dry matter basis) / Valine, Percent Increase over the Untreated Check (on a % dry matter basis): chlorothalonil ###
Procedure: (§1) Greenhouse and laboratory studies were conducted to ascertain the tolerance and nutritional quality differences following postemergence applications of the insecticide chlorpyrifos, the fungicide chlorothalonil, the PGRs mepiquat-chloride and paclobutrazol, and the safeners napthalic anhydride and isoxadifen-ethyl on kale ‘Red Russian’ and basil ‘Genovese’. Visual injury was rated based on general phytotoxicity, chlorosis, and visual stunting and each measurement was based on a percent scale from 0 to 100 where 0 equals no visual response and 100 equals complete plant death. Kale and basil were both harvested approximately 4 weeks after treatments and plants were pooled over replicates for content analysis of crude protein, crude amino acid content, acid detergent fiber, neutral detergent fiber, total fatty acids, and/or key mineral content (including Na, Ca, P, Mg, K, Fe, Mn, Zn, and Cu). In addition, the amounts of key individual amino acids (aspartic acid, threonine, glutamic acid, proline, glycine, cysteine, valine, leucine, isoleucine, methionine, and lysine) and composite classifications of fatty acid (saturated fatty acids, monounsaturated fatty acids, polyunsaturated fatty acids) were also analyzed from these sub-samples for kale (Tables 10-14).

[2] = tested on: basil 'Genovese'; assay: Visual injury of basil after insecticide, fungicide, PGRs, safeners (Example 4); details: 7 DA-A, rates g ai/ha: chlropyrifos 1120, chlorothalonil 2630, paclobutrazol 3.23, mepiquat-chloride 12.3, Isoxadifen 8, Napthalic anhydride 264, + NIS 0.25 % v/v
Procedure: as §1

[3] = first-listed rate g ai/ha: chlropyrifos ###, paclobutrazol 3.2, mepiquat-chloride 12, + NIS 0.3 % v/v
[4] = rates g ai/ha: chlropyrifos 1120, chlorothalonil 2630, paclobutrazol 3.23, mepiquat-chloride 12.3, + NIS 0.25 % v/v
[5] = rates g ai/ha: chlropyrifos 3370, chlorothalonil 7900, paclobutrazol 9.7, mepiquat-chloride 37, + NIS 0.25 % v/v
[6] = second-listed rate g ai/ha: chlropyrifos ###, paclobutrazol 9.7, mepiquat-chloride 37, + NIS 0.3 % v/v

For `CCOP(=S)(OCC)Oc1nc(Cl)c(Cl)cc1Cl` [chlropyrifos], the “Alanine, Percent Increase over the Untreated Check (on a % dry matter basis)” value [1, 3] was −1 % check, the “Aspartic acid, Percent Increase over the Untreated Check (on a % dry matter basis)” value [1, 3] was 0 % check and the “Cysteine, Percent Increase over the Untreated Check (on a % dry matter basis)” value [1, 3] was 0 % check. For the same compound, the “Glutamic acid, Percent Increase over the Untreated Check (on a % dry matter basis)” value [1, 3] was 5 % check, the “Glycine, Percent Increase over the Untreated Check (on a % dry matter basis)” value [1, 3] was −4 % check and the “Iso-leucine, Percent Increase over the Untreated Check (on a % dry matter basis)” value [1, 3] was 0 % check. The “Leucine, Percent Increase over the Untreated Check (on a % dry matter basis)” value [1, 3] was 0 % check, the “Lysine, Percent Increase over the Untreated Check (on a % dry matter basis)” value [1, 3] was 6 % check and the “Methionine, Percent Increase over the Untreated Check (on a % dry matter basis)” value [1, 3] was 2 % check. For the same compound, the “Proline, Percent Increase over the Untreated Check (on a % dry matter basis)” value [1, 3] was −2 % check, the “Threonine, Percent Increase over the Untreated Check (on a % dry matter basis)” value [1, 3] was −2 % check and the “Total Amino acids, Percent Increase over the Untreated Check (on a % dry matter basis)” value [1, 3] was 1 % check. For the same compound, the “Total Protein, Percent Increase over the Untreated Check (on a % dry matter basis)” value [1, 3] was 3 % check, the “Valine, Percent Increase over the Untreated Check (on a % dry matter basis)” value [1, 3] was 1 % check and the “ADF, Percent Increase Over the Untreated Check (on a % dry matter basis)” value [1, 4] was 1 % check. The “Calcium, Percent Increase Over the Untreated Check (on a % dry matter basis)” value [1, 4] was 18 % check, the “Copper, Percent Increase Over the Untreated Check (on a % dry matter basis)” value [1, 4] was 50 % check and the “Iron, Percent Increase Over the Untreated Check (on a % dry matter basis)” value [1, 4] was 33 % check. For the same compound, the “Magnesium, Percent Increase Over the Untreated Check (on a % dry matter basis)” value [1, 4] was 11 % check, the “Manganese, Percent Increase Over the Untreated Check (on a % dry matter basis)” value [1, 4] was 39 % check and the “NDF, Percent Increase Over the Untreated Check (on a % dry matter basis)” value [1, 4] was −8 % check. The “Phosphorous, Percent Increase Over the Untreated Check (on a % dry matter basis)” value [1, 4] was 9 % check, the “Potassium, Percent Increase Over the Untreated Check (on a % dry matter basis)” value [1, 4] was 4 % check and the “Sodium, Percent Increase Over the Untreated Check (on a % dry matter basis)” value [1, 4] was 13 % check. The “Zinc, Percent Increase Over the Untreated Check (on a % dry matter basis)” value [1, 4] was 18 % check, the “ADF, Percent Increase Over the Untreated Check (on a % dry matter basis)” value [1, 5] was 9 % check and the “Calcium, Percent Increase Over the Untreated Check (on a % dry matter basis)” value [1, 5] was 0 % check. For the same compound, the “Copper, Percent Increase Over the Untreated Check (on a % dry matter basis)” value [1, 5] was 28 % check, the “Iron, Percent Increase Over the Untreated Check (on a % dry matter basis)” value [1, 5] was 3 % check and the “Magnesium, Percent Increase Over the Untreated Check (on a % dry matter basis)” value [1, 5] was 3 % check. For the same compound, the “Manganese, Percent Increase Over the Untreated Check (on a % dry matter basis)” value [1, 5] was 16 % check, the “NDF, Percent Increase Over the Untreated Check (on a % dry matter basis)” value [1, 5] was 1 % check and the “Phosphorous, Percent Increase Over the Untreated Check (on a % dry matter basis)” value [1, 5] was 7 % check. For the same compound, the “Potassium, Percent Increase Over the Untreated Check (on a % dry matter basis)” value [1, 5] was 1 % check, the “Sodium, Percent Increase Over the Untreated Check (on a % dry matter basis)” value [1, 5] was 45 % check and the “Zinc, Percent Increase Over the Untreated Check (on a % dry matter basis)” value [1, 5] was 10 % check. For the same compound, the “Alanine, Percent Increase over the Untreated Check (on a % dry matter basis)” value [1, 6] was 6 % check, the “Aspartic acid, Percent Increase over the Untreated Check (on a % dry matter basis)” value [1, 6] was 7 % check and the “Cysteine, Percent Increase over the Untreated Check (on a % dry matter basis)” value [1, 6] was 6 % check. The “Glutamic acid, Percent Increase over the Untreated Check (on a % dry matter basis)” value [1, 6] was 12 % check, the “Glycine, Percent Increase over the Untreated Check (on a % dry matter basis)” value [1, 6] was 3 % check and the “Iso-leucine, Percent Increase over the Untreated Check (on a % dry matter basis)” value [1, 6] was 6 % check. For the same compound, the “Leucine, Percent Increase over the Untreated Check (on a % dry matter basis)” value [1, 6] was 6 % check, the “Lysine, Percent Increase over the Untreated Check (on a % dry matter basis)” value [1, 6] was 11 % check and the “Methionine, Percent Increase over the Untreated Check (on a % dry matter basis)” value [1, 6] was 0 % check. The “Proline, Percent Increase over the Untreated Check (on a % dry matter basis)” value [1, 6] was 9 % check, the “Threonine, Percent Increase over the Untreated Check (on a % dry matter basis)” value [1, 6] was 4 % check and the “Total Amino acids, Percent Increase over the Untreated Check (on a % dry matter basis)” value [1, 6] was 7 % check. For the same compound, the “Total Protein, Percent Increase over the Untreated Check (on a % dry matter basis)” value [1, 6] was 5 % check, the “Valine, Percent Increase over the Untreated Check (on a % dry matter basis)” value [1, 6] was 7 % check and the “Phytotoxicity Chlorosis” value [2] was 8%.
